Key:
Herceptin = experiment: spot phage ELISA against Herceptin (off-target); type: binding; details: for HERCEPTIN S/W: signal minus noise (BSA); for HERCEPTIN S/W / HERCEPTIN S/N: Table 5; for HERCEPTIN S/N: signal to noise ratio; for SIGNAL: NOISE RATIO HERCEPTIN: spot phage ELISA signal against Herceptin over ELISA signal against BSA, Tables 3 and 4
Description: Phage pools of linear peptide libraries (Stanger, K. et al. Allosteric peptides bind a caspase zymogen and mediate caspase tetramerization. Nat Chem Biol 8, 655-660 (2012)) were cycled through rounds of binding selections with hFZD7 CRD-Fc following standard protocols (Tonikian et al. (2007) Nat Protoc 2, 1368-1386). Herceptin (10 μM) was included in sorting solution to block potential Fc binders during all rounds of sorting. After four rounds of binding selection, individual phage clones were analyzed in a high-throughput spot phage ELISA using plate-immobilized FZD7 CRD-Fc as target or off-target for specificity test (hFZD8 CRD-Fc and Herceptin). To measure off-target affinity, duplicate phage particle were assayed against BSA to measure non-specific binding. Clones with a phage-binding signal >0.5 and signal-to-noise ratio >10 were considered to be positive clones and were subjected to DNA sequence analysis. General data handling was done using Microsoft Excel 2010 unless otherwise noted.
In order to investigate the role of FZD7 in intestinal stem cell function, experiments were performed to identify ligands that selectively bind FZD7 CRD. A naïve linear peptide library (4-16 amino acids in length) and a cyclic peptide library were screened via phage display against FZD7 CRD-Fc. Peptides found to bind FZD7 CRD-Fc were then screened via spot phage ELISA against FZD7 CRD-Fc, FZD8 CRD-Fc, and Herceptin to identify candidates that bind FZD7 CRD but not FZD8 CRD or herceptin. The amino acid sequences of candidate FZD7 CRD-binding linear peptides are shown in Table 3 below, and the amino acid sequences of candidate FZD7 CRD-binding cyclic peptides are shown in Table 4.
Briefly, sixty Fz7-21-derived peptides (see Table 5), each containing at least one random alanine and/or valine/and/or aspartic acid and/or serine substitution, were generated and screened via spot phage ELISA (i.e., as described above) against FZD7 CRD-Fc and Herceptin.

[1] = tested on: Wnt3a-mediated β-catenin signaling in HEK293-TB cells; type: cell-based; details: text to Table 17

Row | Substance | HERCEPTIN S/W (Herceptin) | HERCEPTIN S/N (Herceptin) | SIGNAL: NOISE RATIO HERCEPTIN (Herceptin) | IC50 compared with dFz7-21 [1]
1 | 96 (APADDLESWCHVMY) [compound 96] | 0.1 | 2.1 |  | 
2 | 14 (DTDLLQWCLWFT) [compound 14] |  |  | 1.2 | 
3 | 93 (AAADDLAFWCDVMY) [compound 93] | -0.2 | 0.4 |  | 
4 | 43 (APADDVEFWCHVMY) [compound 43] | 0.0 | 1.8 |  | 
5 | 56 (APSDDLAAWCHVVY) [compound 56] | 0.0 | 1.2 |  | 
6 | 20 (FLPDQHSHLFLPWGEP) [compound 20] |  |  | 1.1 | 
7 | 97 (APSDDLAFWCHVVY) [compound 97] | 0.1 | 2.1 |  | 
8 | 73 (APSDDLAAWCHVMY) [compound 73] | 0.0 | 1.3 |  | 
9 | 8 (FELLLDLGDLIRLW) [compound 8] |  |  | 1.8 | 
10 | 6 (DTDLHQWCLWFT) [compound 6] |  |  | 1.1 | 
11 | 7 (FWMLLQEGFAFWFP) [compound 7] |  |  | 1.3 | 
12 | 45 (APADDLEAWCHVMY) [compound 45] | 0.0 | 1.2 |  | 
13 | 46 (APSDDLEFWCHAMY) [compound 46] | 0.0 | 1.3 |  | 
14 | 57 (AAADDLAAWCDVMY) [compound 57] | 0.0 | 1.4 |  | 
15 | 77 (AASDDLAFWCHVMY) [compound 77] | 0.0 | 1.1 |  | 
16 | 89 (APADDLEFWCHAMY) [compound 89] | 0.0 | 1.4 |  | 
17 | 67 (VPADDLAFWCHVMY) [compound 67] | 0.0 | 1.3 |  | 
18 | 51 (APADDLAFWCHVMY) [compound 51] | 0.0 | 1.3 |  | 
19 | 87 (AAADDVASWCHVMY) [compound 87] | 0.0 | 1.3 |  | 
20 | 25 (EHDLLLRAMNSFVLIF) [compound 25] |  |  | 1.4 | 
21 | 3 (PQDLLDWCHYMIVSSD) [compound 3] |  |  | 1.2 | 

Row | Substance | HERCEPTIN S/W (Herceptin) | HERCEPTIN S/N (Herceptin) | SIGNAL: NOISE RATIO HERCEPTIN (Herceptin) | IC50 compared with dFz7-21 [1]
22 | 52 (LPADDLAVWCDVMY) [compound 52] | 0.0 | 1.5 |  | 
23 | 60 (LAADDLESWCHVMY) [compound 60] | 0.0 | 1.2 |  | 
24 | 22 (VFVPFSELTSLC) [compound 22] |  |  | 1.1 | 
25 | 49 (AASDDLAAWCHVMY) [compound 49] | 0.0 | 1.8 |  | 
26 | 78 (VPADDLASWCDVMY) [compound 78] | 0.1 | 1.9 |  | 
27 | 34 (HLSDVCCSDWCDLVFW) [compound 34] |  |  | 0.99 | 
28 | 61 (APADDLASWCHVMY) [compound 61] | 0.0 | 1.3 |  | 
29 | 35 (TSDFSWCLSWCDLIFW) [compound 35] |  |  | 1.19 | 
30 | 90 (APADDLAFWCDVMY) [compound 90] | 0.0 | 0.9 |  | 
31 | 70 (AASDDLEAWCHVMY) [compound 70] | 0.0 | 1.4 |  | 
32 | 91 (APSDDLAFWCDVMY) [compound 91] | 0.0 | 0.7 |  | 
33 | 68 (VPSDDLASWCHVMY) [compound 68] | 0.0 | 1.4 |  | 
34 | 42 (APSDDVAFWCHVMY) [compound 42] | 0.0 | 1.6 |  | 
35 | 76 (VPSDDLEAWCDVMY) [compound 76] | 0.0 | 1.3 |  | 
36 | 85 (PPADDLAFWCDVMY) [compound 85] | 0.0 | 1.1 |  | 
37 | 82 (LPAADLAAWCHVMY) [compound 82] | 0.0 | 1.2 |  | 
38 | 29 (ERRVCYPWFEVSQP) [compound 29] |  |  | 1.3 | 
39 | 80 (AAADDLAFWCHVMY) [compound 80] | 0.0 | 1.4 |  | 
40 | 17 (GDFWPGSLLWEILV) [compound 17] |  |  | 1.2 | 
41 | 38 (HLSDVFCSDWCDLVFW) [compound 38] |  |  | 1.14 | 
42 | 65 (VPSDDLAFWCHVMY) [compound 65] | 0.0 | 1.3 |  | 

Row | Substance | HERCEPTIN S/W (Herceptin) | HERCEPTIN S/N (Herceptin) | SIGNAL: NOISE RATIO HERCEPTIN (Herceptin) | IC50 compared with dFz7-21 [1]
43 | 84 (LPADDLAAWCHVMY) [compound 84] | 0.0 | 1.4 |  | 
44 | 71 (APSDDLASWCHVMY) [compound 71] | 0.0 | 1.1 |  | 
45 | 74 (APADDLAFWCHVVY) [compound 74] | 0.0 | 1.3 |  | 
46 | 55 (VAADALEFWCHVMY) [compound 55] | 0.0 | 1.3 |  | 
47 | 66 (VPADALAVWCDVMY) [compound 66] | 0.0 | 1.3 |  | 
48 | 72 (APADDLEFWCHVMY) [compound 72] | 0.0 | 1.2 |  | 
49 | 79 (LPSADLESWCHVMY) [compound 79] | 0.0 | 1.4 |  | 
50 | 2 (TYFDDICNLILPWANP) [compound 2] |  |  | 1.2 | 
51 | 36 (FDFCTVMPHFIYCPGD) [compound 36] |  |  | 1.13 | 
52 | 4 (ACSYVIDLWNQCLT) [compound 4] |  |  | 1.1 | 
53 | 64 (APADDLEFWCHVVY) [compound 64] | 0.0 | 1.4 |  | 
54 | 50 (AASDDLESWCHVMY) [compound 50] | 0.0 | 1.2 |  | 
55 | 26 (FCENPYIICW) [compound 26] |  |  | 1.1 | 
56 | 27 (NPPPECFLSK) [compound 27] |  |  | 1.2 | 
57 | 30 (LSSGKKVSSYWFNFWF) [compound 30] |  |  | 3.8 | 
58 | 86 (VASDDLASWCHVVY) [compound 86] | 0.0 | 1.2 |  | 
59 | 44 (APSDDLEFWCHVMY) [compound 44] | 0.0 | 1.3 |  | 
60 | 83 (VPSADLETWCHVMY) [compound 83] | 0.0 | 1.4 |  | 
61 | 9 (ACSYVIDLWNLCLR) [compound 9] |  |  | 1.3 | 
62 | 31 (FWFDFWFG) [compound 31] |  |  | 4.1 | 
63 | 48 (AAADDLEFWCHVMY) [compound 48] | 0.0 | 1.2 |  | 

Row | Substance | HERCEPTIN S/W (Herceptin) | HERCEPTIN S/N (Herceptin) | SIGNAL: NOISE RATIO HERCEPTIN (Herceptin) | IC50 compared with dFz7-21 [1]
64 | 63 (VPADDLASWCHVMY) [compound 63] | 0.0 | 1.2 |  | 
65 | 69 (VPSADLESWCHVMY) [compound 69] | 0.0 | 1.6 |  | 
66 | 98 (AAADDLAAWCHVVY) [compound 98] | 0.1 | 2.2 |  | 
67 | 62 (VASDDLASWCHAMY) [compound 62] | 0.0 | 1.3 |  | 
68 | SDDXEFWCHVMY [dFz7-21Δ2.L6Hof] |  |  |  | comparable to that of dFz7-21
69 | 75 (APSDDLEAWCDVMY) [compound 75] | 0.0 | 1.3 |  | 
70 | 54 (AAADDLEVWCHVMY) [compound 54] | 0.0 | 1.4 |  | 
71 | 58 (VASDDLEFWCHVMY) [compound 58] | 0.0 | 1.3 |  | 
72 | 53 (LPSDDLESWCHVMY) [compound 53] | 0.0 | 1.2 |  | 
73 | 59 (AAADDLEAWCAVMY) [compound 59] | 0.0 | 1.2 |  | 
74 | 95 (VPSDDLEFWCAVMY) [compound 95] | 0.0 | 1.2 |  | 
75 | 92 (LPADDLAFWCDVMY) [compound 92] | 0.0 | 0.7 |  | 
76 | 88 (VAADDLAFWCDVMY) [compound 88] | 0.0 | 1.2 |  | 
77 | 81 (LASDDLEFWCHVMY) [compound 81] | 0.0 | 1.2 |  | 
78 | 32 (SSDFSGCLSWCDLIFG) [compound 32] |  |  | 1.22 | 
79 | 10 (ASELHDWCRMMFPW) [compound 10] |  |  | 1.2 | 
80 | 37 (FDFCSVMPHFIYCPGD) [compound 37] |  |  | 1.10 | 
81 | 12 (PPNVHEGCWSMFPW) [compound 12] |  |  | 1.1 | 
82 | 24 (NAFWRDQCLEWFIICL) [compound 24] |  |  | 1.2 | 
83 | 47 (VASDDLEAWCHVMY) [compound 47] | 0.0 | 1.4 |  | 
84 | 39 (VAADDLAAWCHVMY) [compound 39] | 0.0 | 1.4 |  | 

— patent publication US20190359653A1, “SELECTIVE PEPTIDE INHIBITORS OF FRIZZLED” (Genentech, Inc., priority 2016, published 2019)
